Data taken from patent publication US20080200448A1, “New Pyridine Analogues VIII 518” (ASTRAZENECA AB, priority 2007, published 2008).

What follows are compounds tested against T1, P2Y12 receptor (Homo sapiens, UniProt Q9H244) (assay: Functional inhibition of 2-Me-S-ADP induced P2Y12 signalling (35S-GTPγS binding, cell membranes)). Details: 35S-GTPγS assay, membranes, EC80 concentration of 2-methyl-thio-adenosine diphosphate, 30° C. for 45 min; read-out: GTPγS (IC50 μM).
T1 construct: expressed in transfected cells; host or cells: CHO cells (membrane preparation)
Type: biochemical
In short: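 Membranes (5 μg) from P2Y12-transfected CHO cells in pH 7.4 HEPES buffer with 10 μM GDP and saponin were stimulated with an EC80 of 2-methyl-thio-ADP plus compound and ^35S-GTPγS for 45 min at 30° C. Filter-retained ^35S-GTPγS was counted, normalised between agonist and no-agonist activity, and IC50 taken from a four-parameter fit.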

T1 sequence (Q9H244 whole entry): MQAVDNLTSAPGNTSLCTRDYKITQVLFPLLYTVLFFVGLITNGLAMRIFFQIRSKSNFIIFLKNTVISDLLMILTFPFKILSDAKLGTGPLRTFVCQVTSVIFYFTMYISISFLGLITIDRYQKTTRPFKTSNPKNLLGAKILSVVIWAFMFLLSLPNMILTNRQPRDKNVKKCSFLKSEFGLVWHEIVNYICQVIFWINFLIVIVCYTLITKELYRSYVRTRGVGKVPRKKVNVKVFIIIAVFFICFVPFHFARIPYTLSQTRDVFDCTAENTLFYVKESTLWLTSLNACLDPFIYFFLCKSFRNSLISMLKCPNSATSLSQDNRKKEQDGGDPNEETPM

IC50 [µM] | Structure (SMILES)
0.0097 | CCOC(=O)c1cc(C#N)c(N2CCC(C(=O)NS(=O)(=O)Cc3ccc(C(F)(F)F)cc3)CC2)nc1CN1CCCC1=O [Example 35, Ethyl 5-cyano-2-[(2-oxopyrrolidin-1-yl)methyl]-6-[4-({[4-(trifluoromethyl)benzyl]sulfonyl}carbamoyl)piperidin-1-yl]nicotinate]
0.033 | CCOC(=O)c1cc(C#N)c(N2CCC(C(=O)NS(=O)(=O)Cc3ccccc3)CC2)nc1CSCCNC(C)=O [Example 29, Ethyl 2-{[(2-acetamidoethyl)thio]methyl}-6-{4-[(benzylsulfonyl)carbamoyl]piperidin-1-yl}-5-cyanonicotinate]
0.016 | CCOC(=O)c1cc(C#N)c(N2CCC(C(=O)NS(=O)(=O)Cc3ccc(Cl)cc3Cl)CC2)nc1CN1CCCC1=O [Example 41, Ethyl 5-cyano-6-(4-{[(2,4-dichlorobenzyl)sulfonyl]carbamoyl}piperidin-1-yl)-2-[(2-oxopyrrolidin-1-yl)methyl]nicotinate]
0.037 | CCOC(=O)c1cc(Cl)c(N2CCC(C(=O)NS(=O)(=O)Cc3ccc(C)cc3)CC2)nc1CN1CCCC1=O [Example 87, Ethyl 5-chloro-6-(4-{[(4-methylbenzyl)sulfonyl]carbamoyl}piperidin-1-yl)-2-[(2-oxopyrrolidin-1-yl)methyl]nicotinate]
0.14 | CCOC(=O)c1cc(C#N)c(N2CCC(C(=O)NS(=O)(=O)Nc3ccccc3)CC2)nc1CN1CCCCC1=O [Example 64, Ethyl 6-{4-[(anilinosulfonyl)carbamoyl]piperidin-1-yl}-5-cyano-2-[(2-oxopiperidin-1-yl)methyl]nicotinate]
0.015 | CCOC(=O)c1cc(C#N)c(N2CCC(C(=O)NS(=O)(=O)Cc3ccccc3)CC2)nc1COC(=O)CO [Example 16, Ethyl 6-{4-[(benzylsulfonyl)carbamoyl]piperidin-1-yl}-5-cyano-2-[(glycoloyloxy)methyl]nicotinate]
0.145 | CCOC(=O)c1cc(Cl)c(N2CCC(C(=O)NS(=O)(=O)Nc3ccc(F)cc3)CC2)nc1CN1CCCC1=O [Example 91, Ethyl 5-chloro-6-[4-({[(4-fluorophenyl)amino]sulfonyl}carbamoyl)piperidin-1-yl]-2-[(2-oxopyrrolidin-1-yl)methyl]nicotinate]
0.033 | CCOC(=O)c1cc(C#N)c(N2CCC(C(=O)NS(=O)(=O)Cc3ccc(SC(F)(F)F)cc3)CC2)nc1CN1CCCC1=O [Example 66, Ethyl 5-cyano-2-[(2-oxopyrrolidin-1-yl)methyl]-6-{4-[({4-[(trifluoromethyl)thio]benzyl}sulfonyl)carbamoyl]piperidin-1-yl}nicotinate]
0.037 | CCOC(=O)c1cc(C#N)c(N2CCC(C(=O)NS(=O)(=O)CC3CCC3)CC2)nc1CN1CCCC1=O [Example 74, Ethyl 5-cyano-6-(4-{[(cyclobutylmethyl)sulfonyl]carbamoyl}piperidin-1-yl)-2-[(2-oxopyrrolidin-1-yl)methyl]nicotinate]
> 3.3 | CC(C)OC(=O)c1cc(C#N)c(N2CCC(C(=O)NS(=O)(=O)CC3CCOCC3)CC2)nc1CN1CCCC1=O [Example 73, Isopropyl 5-cyano-2-[(2-oxopyrrolidin-1-yl)methyl]-6-(4-{[(tetrahydro-2H-pyran-4-ylmethyl)sulfonyl]carbamoyl}piperidin-1-yl)nicotinate]
0.069 | CCOC(=O)c1cc(C#N)c(N2CC(C(=O)NS(=O)(=O)Cc3ccccc3)C2)nc1CN=[N+]=[N-] [Example 9, Ethyl 2-(azidomethyl)-6-{3-[(benzylsulfonyl)carbamoyl]azetidin-1-yl}-5-cyanonicotinate]
0.081 | CCOC(=O)c1cc(C#N)c(N2CC(C(=O)NS(=O)(=O)Cc3ccccc3)C2)nc1CSCCNC(C)=O [Example 32, Ethyl 2-{[(2-acetamidoethyl)thio]methyl}-6-{3-[(benzylsulfonyl)carbamoyl]azetidin-1-yl}-5-cyanonicotinate]
0.376 | CCOC(=O)c1cc(C#N)c(N2CCC(C(=O)NS(=O)(=O)Cc3ccc(C(C)(C)C)cc3)CC2)nc1CN1CCCCC1=O [Example 103, Ethyl 6-(4-{[(4-tert-butylbenzyl)sulfonyl]carbamoyl}piperidin-1-yl)-5-cyano-2-[(2-oxopiperidin-1-yl)methyl]nicotinate]
0.062 | CCOC(=O)c1cc(Cl)c(N2CCC(C(=O)NS(=O)(=O)N(C)c3ccccc3)CC2)nc1CN1CCCC1=O [Example 93, Ethyl 5-chloro-6-[4-({[methyl(phenyl)amino]sulfonyl}carbamoyl)piperidin-1-yl]-2-[(2-oxopyrrolidin-1-yl)methyl]nicotinate]
0.081 | CCOC(=O)c1cc(Cl)c(N2CCC(C(=O)NS(=O)(=O)Cc3ccc(OC)cc3)CC2)nc1CN1CCCC1=O [Example 88, Ethyl 5-chloro-6-(4-{[(4-methoxybenzyl)sulfonyl]carbamoyl}piperidin-1-yl)-2-[(2-oxopyrrolidin-1-yl)methyl]nicotinate]
0.02 | CCOC(=O)c1cc(C#N)c(N2CCC(C(=O)NS(=O)(=O)Cc3ccc(F)cc3F)CC2)nc1CN1CCCCC1=O [Example 67, Ethyl 5-cyano-6-(4-{[(2,4-difluorobenzyl)sulfonyl]carbamoyl}piperidin-1-yl)-2-[(2-oxopiperidin-1-yl)methyl]nicotinate]
0.057 | CCOC(=O)c1cc(Cl)c(N2CCC(C(=O)NS(=O)(=O)Cc3ccc(Cl)cc3)CC2)nc1SCCNC(C)=O [Example 104, Ethyl 2-[(2-acetamidoethyl)thio]-5-chloro-6-(4-{[(4-chlorobenzyl)sulfonyl]carbamoyl}piperidin-1-yl)nicotinate]
0.545 | CCOC(=O)c1cc(C#N)c(N2CCC(C(=O)NS(=O)(=O)Cc3ccccc3)CC2)nc1CN1CCCC1 [Example 3, Ethyl 6-{4-[(benzylsulfonyl)carbamoyl]piperidin-1-yl}-5-cyano-2-(pyrrolidin-1-ylmethyl)nicotinate]
0.021 | CCOC(=O)c1cc(C#N)c(N2CCC(C(=O)NS(=O)(=O)CC3CCCCC3)CC2)nc1CN1CCCC1=O [Example 65, Ethyl 5-cyano-6-(4-{[(cyclohexylmethyl)sulfonyl]carbamoyl}piperidin-1-yl)-2-[(2-oxopyrrolidin-1-yl)methyl]nicotinate]
0.02 | CC(C)OC(=O)c1cc(C#N)c(N2CCC(C(=O)NS(=O)(=O)Cc3ccc(C(F)(F)F)cc3)CC2)nc1CN1CCCC1=O [Example 50, Isopropyl 5-cyano-2-[(2-oxopyrrolidin-1-yl)methyl]-6-[4-({[4-(trifluoromethyl)benzyl]sulfonyl}carbamoyl)piperidin-1-yl]nicotinate]
0.155 | CCCOC(=O)c1cc(Cl)c(N2CCC(C(=O)NS(=O)(=O)N(C)c3ccc(F)cc3)CC2)nc1CN1CCCC1=O [Example 95, Propyl 5-chloro-6-[4-({[(4-fluorophenyl)(methyl)amino]sulfonyl}carbamoyl)piperidin-1-yl]-2-[(2-oxopyrrolidin-1-yl)methyl]nicotinate]
0.041 | CCOC(=O)c1cc(Cl)c(N2CCC(C(=O)NS(=O)(=O)Cc3ccccc3)CC2)nc1CN1CCCC1=O [Example 85, Ethyl 6-{4-[(benzylsulfonyl)carbamoyl]piperidin-1-yl}-5-chloro-2-[(2-oxopyrrolidin-1-yl)methyl]nicotinate]
0.016 | CCOC(=O)c1cc(C#N)c(N2CCC(C(=O)NS(=O)(=O)Cc3ccccc3)CC2)nc1SCC(=O)OC(C)C [Example 111, Ethyl 6-{4-[(benzylsulfonyl)carbamoyl]piperidin-1-yl}-5-cyano-2-[(2-isopropoxy-2-oxoethyl)thio]nicotinate]
0.194 | CCOC(=O)c1cc(Cl)c(N2CCC(C(=O)NS(=O)(=O)CC3CCCCC3)CC2)nc1CN1CCCC1=O [Example 94, Ethyl 5-chloro-6-(4-{[(cyclohexylmethyl)sulfonyl]carbamoyl}piperidin-1-yl)-2-[(2-oxopyrrolidin-1-yl)methyl]nicotinate]
0.036 | CCOC(=O)c1cc(C#N)c(N2CCC(C(=O)NS(=O)(=O)N(C)c3ccccc3)CC2)nc1CN1CCCCC1=O [Example 71, Ethyl 5-cyano-6-[4-({[methyl(phenyl)amino]sulfonyl}carbamoyl)piperidin-1-yl]-2-[(2-oxopiperidin-1-yl)methyl]nicotinate]
0.093 | CCOC(=O)c1cc(C#N)c(N2CCC(C(=O)N(CC(=O)O)S(=O)(=O)Cc3ccccc3)CC2)nc1C [Example 1, N-(benzylsulfonyl)-N-({1-[3-cyano-5-(ethoxycarbonyl)-6-methylpyridin-2-yl]piperidin-4-yl}carbonyl)glycine]
0.05 | CCOC(=O)c1cc(C#N)c(N2CCC(C(=O)NS(=O)(=O)Cc3ccccc3)CC2)nc1OCCn1cccc1 [Example 113, Ethyl 6-{4-[(benzylsulfonyl)carbamoyl]piperidin-1-yl}-5-cyano-2-[2-(1H-pyrrol-1-yl)ethoxy]nicotinate]
0.019 | Cc1ccc(CS(=O)(=O)NC(=O)C2CCN(c3nc(CN4CCCC4=O)c(C(=O)OC(C)C)cc3C#N)CC2)cc1 [Example 45, Isopropyl 5-cyano-6-(4-{[(4-methylbenzyl)sulfonyl]carbamoyl}piperidin-1-yl)-2-[(2-oxopyrrolidin-1-yl)methyl]nicotinate]
0.027 | CCOC(=O)c1cc(C#N)c(N2CCC(C(=O)NS(=O)(=O)Cc3ccccc3)CC2)nc1OCCN1CCCC1=O [Example 114, Ethyl 6-{4-[(benzylsulfonyl)carbamoyl]piperidin-1-yl}-5-cyano-2-[2-(2-oxopyrrolidin-1-yl)ethoxy]nicotinate]
0.011 | CCOC(=O)c1cc(C#N)c(N2CCC(C(=O)NS(=O)(=O)Cc3ccc(Cl)cc3)CC2)nc1CN1CCCC1=O [Example 39, Ethyl 6-(4-{[(4-chlorobenzyl)sulfonyl]carbamoyl}piperidin-1-yl)-5-cyano-2-[(2-oxopyrrolidin-1-yl)methyl]nicotinate]
